Reference: patent US20060258571A1, “Antibacterial ester macrocycles” (priority 2002, published 2006)
Counter-ions that a name gives are not always drawn.

Tests used:
[1] = tested on: S. aureus 133; test: Minimum inhibitory concentration (MIC), liquid dilution test; assay type: cell-based; settings: minimal medium with 0.4% BH broth, 37° C., 18-24 h
Description: (§1) Determination of the Minimum Inhibitory Concentration (MIC):
(§2) The inhibitor concentration can in these cases be determined by standard microbiological methods (see, for example, The National Committee for Clinical Laboratory Standards. Methods for dilution antimicrobial susceptibility tests for bacteria that grow aerobically; approved standard-fifth edition. NCCLS document M7-A5 [ISBN 1-56238-394-9]. NCCLS, 940 West Valley Road, Suite 1400, Wayne, Pa. 19087-1898 USA, 2000). The MIC of the compounds of the invention is determined in the liquid dilution test on the 96-well microtiter plate scale. The bacterial microbes are cultivated in a minimal medium (18.5 mM Na2HPO4, 5.7 mM KH2PO4, 9.3 mM NH4Cl, 2.8 mM MgSO4, 17.1 mM NaCl, 0.033 μg/ml thiamine hydrochloride, 1.2 μg/ml nicotinic acid, 0.003 μg/ml biotin, 1% glucose, 25 μg/ml of each proteinogenic amino acid with the exception of phenylalanine; [H.-P. Kroll; unpublished]) with addition of 0.4% BH broth (test medium). In the case of Enterococcus faecalis ICB 27159, heat-inactivated fetal calf serum (FCS; GibcoBRL, Germany) is added to the test medium in a final concentration of 10%. Overnight cultures of the test microbes are diluted to an OD578 of 0.001 (to 0.01 in the case of Enterococci) in fresh test medium, and incubated 1:1 with dilutions of the test substances (1:2 dilution steps) in test medium (150 μl final volume). The cultures are incubated at 37° C. for 18-24 hours; Enterococci in the presence of 5% CO2.
(§3) The lowest substance concentration in each case at which bacterial growth was no longer visible is defined as the MIC. […] The compounds show a graded antibacterial effect against most of the test microbes.

[2] = tested on: S. aureus 133 Translation; test: In vitro transcription-translation with S. aureus extracts; assay type: biochemical; settings: S30 extract, plasmid p1a template, firefly luciferase, 30° C. 60 min
Description: (§4) In Vitro Transcription-Translation with S. aureus Extracts
(§5) Construction of an S. aureus Luciferase Reporter Plasmid
(§6) A reporter plasmid which can be used in an in vitro transcription-translation assay for S. aureus is constructed by using the plasmid pBESTluc (Promega Corporation, USA). The E. coli tac promoter present in this plasmid in front of the firefly luciferase is replaced by the capA1 promoter with appropriate Shine-Dalgarno sequence from S. aureus. The primers CAPFor 5′-CGGCCAAGCTTACTCGGAT-[…] […]-3′ and CAPRev 5′-[…]-3′ are used for this. The primer CAPFor contains the capA1 promoter, the ribosome binding site and the 5′ region of the luciferase gene. After PCR using pBESTluc as template it is possible to isolate a PCR product which contains the firefly luciferase gene with the fused capA1 promoter. This is, after restriction with ClaI and HindIII, ligated into the vector pBESTluc which has likewise been digested with ClaI and HindIII. The resulting plasmid p1a is able to replicate in E. coli and be used as template in the S. aureus in vitro transcription-translation assay.
(§7) Preparation of S30 Extracts from S. aureus
(§8) Six liters of BHI medium are inoculated with a 250 ml overnight culture of an S. aureus strain and allowed to grow at 37° C. until the OD600 nm is 2-4. The cells are harvested by centrifugation and washed in 500 ml of cold buffer A (10 mM Tris acetate, pH 8.0, 14 mM Mg acetate, 1 mM DTT, 1 M KCl). After renewed centrifugation, the cells are washed in 250 ml of cold buffer A with 50 mM KCl, and the resulting pellets are frozen at −20° C. for 60 min. The pellets are thawed on ice in 30 to 60 min and taken up to a total volume of 99 ml in buffer B (10 mM Tris acetate, pH 8.0, 20 mM Mg acetate, 1 mM DTT, 50 mM KCl). 1.5 ml portions of lysostaphin (0.8 mg/ml) in buffer B are each introduced into 3 precooled centrifuge cups and each mixed with 33 ml of the cell suspension. The samples are incubated at 37° C., shaking occasionally, for 45 to 60 min, before 150 μl of a 0.5 M DTT solution are added. The lyzed cells are centrifuged at 30 000×g and 4° C. for 30 min. The cell pellet is taken up in buffer B and then centrifuged again under the same conditions, and the collected supernatants are combined. […]
(§9) Inhibition of protein biosynthesis of the compounds can be shown in an in vitro transcription-translation assay. […] The activity of the resulting luciferase can be detected by luminescence measurement. […]

[3] = tested on: B. catarrhalis M3; test: Minimum inhibitory concentration (MIC), liquid dilution test; assay type: cell-based; settings: Moraxella catarrhalis, minimal medium with 0.4% BH broth, 37° C., 18-24 h
Description: as §1, §2, §3

[4] = tested on: Enterococcus faecalis ICB 27159; test: as above; assay type: cell-based; settings: ICB27159, test medium with 10% heat-inactivated FCS, 5% CO2, 37° C., 18-24 h, read-out: MIC E. faecalis ICB 27159
Description: as §1, §2, §3

[5] = tested on: S. aureus 25701; test: as above; assay type: cell-based; settings: Staphylococcus aureus, minimal medium with 0.4% BH broth, 37° C., 18-24 h
Description: as §1, §2, §3

[6] = tested on: S. aureus RN4220; test: as above; assay type: cell-based; settings: Staphylococcus aureus, minimal medium with 0.4% BH broth, 37° C., 18-24 h
Description: as §1, §2, §3

[7] = tested on: E. coli MRE600 Translation; test: In vitro transcription-translation with E. coli extracts; assay type: biochemical, Escherichia coli; settings: S30 extract, pBESTLuc template, firefly luciferase, 30° C. 60 min
Experimental: In Vitro Transcription-Translation with E. coli Extracts
An S30 extract is prepared by harvesting logarithmically growing Escherichia coli MRE 600 (M. Müller; University Freiburg), washing and employing them as described for the in vitro transcription-translation assay (Müller, M. and Blobel, G. Proc Natl Acad Sci USA (1984) 81, pp. 7421-7425).
1 μl of cAMP (11.25 mg/ml) are additionally added per 50 μl of reaction mix to the reaction mix for the in vitro transcription-translation assay. The assay mixture amounts to 105 μl, with 5 μl of the substance to be tested being introduced in 5% strength DMSO. 1 μg/100 pt of mixture of the plasmid pBESTLuc (Promega, Germany) are used as transcription template. After incubation at 30° C. for 60 min, 50 pt of luciferin solution (20 mM tricine, 2.67 mM MgSO4, 0.1 mM EDTA, 33.3 mM DTT pH 7.8, 270 μM CoA, 470 μM luciferin, 530 μM ATP) are added, and the resulting bioluminescence is measured in a luminometer for 1 minute. The IC50 is indicated by the concentration of an inhibitor which leads to 50% inhibition of the translation of firefly luciferase.

[8] = tested on: S. aureus RN4220 Translation; test: In vitro transcription-translation with S. aureus extracts; assay type: biochemical; settings: S30 extract, plasmid p1a template, firefly luciferase, 30° C. 60 min
Description: as §4, §5, §6, §7, §8, §9

| Compound | MIC [1] [µM] | IC50 [2] [nM] | MIC [3] [µM] | MIC [4] [µM] | MIC ([1]; Staphylococcus aureus, 133) [µM] | MIC [5] [µM] | MIC [6] [µM] | IC50 [7] [nM] | IC50 [8] [nM] |
| --- | --- | --- | --- | --- | --- | --- | --- | --- | --- |
| 2-Aminoethyl-(8S,11S,14S)-14-amino-11-[(2R)-3-amino-2-hydroxypropyl]-5,17-dihydroxy-9-methyl-10,13-dioxo-9,12-diazatricyclo[14.3.1.1^2,6]henicosa-1(20),2(21),3,5,16,18-hexaene-8-carboxylate trihydrochloride [Example 10] | 3.1 | 700 | – | – | – | – | – | – | – |
| COC(=O)[C@@H]1Cc2cc(ccc2O)-c2ccc(O)c(c2)C[C@H](N)C(=O)N[C@@H](C[C@@H](O)CN)C(=O)N1 [Example 1, Methyl(8S,11S,14S)-14-amino-11-[(2R)-3-amino-2-hydroxypropyl]-5,17-dihydroxy-10,13-dioxo-9,12-diazatricyclo[14.3.1.1^2,6]henicosa-1(20),2(21),3,5,16,18-hexaene-8-carboxylate dihydrochloride] | – | 500 to 3000 | 1.56 | 1.56 | 3.13 | 12.5 | 0.4 | 500 | 1700 |
| CCOC(=O)[C@@H]1Cc2cc(ccc2O)-c2ccc(O)c(c2)C[C@H](N)C(=O)N[C@@H](C[C@@H](O)CN)C(=O)N1 [Example 2, Ethyl(8S,11S,14S)-14-amino-11-[(2R)-3-amino-2-hydroxypropyl]-5,17-dihydroxy-10,13-dioxo-9,12-diazatricyclo[14.3.1.1^2,6]henicosa-1(20),2(21),3,5,16,18-hexaene-8-carboxylate dihydrochloride] | – | 2400 to 4300 | 6.25 | – | 0.78 | – | – | 200 | – |
